Some test systems named below: ACHN; CAKI-1; HOP-62; HT-29; Hs-578T; K562; M14; MCF7; OVCAR-3; OVCAR-4; OVCAR-5; OVCAR-8; SF-268; SF-295; SF-539; SN12C; SNB-75; UACC-257; UO-31.
What all share (assay): growth of human tumour cells (NCI), 48 h

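Interpolation was linear, between the two tested concentrations surrounding the appropriate level; five concentrations were tested over 48 hours in 96-well plates. The concentration for 50% growth inhibition is given as GI50.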 Activity calls are given as the source filed them. Rule as the data show it: active = GI50 up to about 1.1 µM and inactive = higher. Some results are limits rather than exact numbers.

Regarding `O=C1C=CC2(O[C@H](c3ccccc3)[C@@H](c3ccccc3)O2)[C@H](Sc2ccccc2O)C1`, the GI50 was 0.351 µM (active) with ACHN; 0.34 µM (active) in the assay with CAKI-1; 1.85 µM (inactive) with HOP-62; 0.398 µM (active) in the assay on HT-29; 0.836 µM (active) in the assay on Hs-578T; 0.405 µM (active) in the assay with K562. For the same molecule, the GI50 with M14 is 0.233 µM (active); with MCF7, 0.27 µM (active); in the assay with OVCAR-3 it was 0.418 µM (active); with OVCAR-4, 1.08 µM (active); in the assay with OVCAR-5, 2.35 µM (inactive); in the assay on OVCAR-8, 0.105 µM (active). Also, the GI50 is 0.29 µM (active) with SF-268; 6.43 µM (inactive) in the assay with SF-295; 0.757 µM (active) with SF-539; 0.204 µM (active) in the assay with SN12C; 3.28 µM (inactive) in the assay on SNB-75; 0.658 µM (active) in the assay with UACC-257. Moreover, the GI50 in the assay with UO-31 is 0.665 µM (active).
On to `C(#C[C@@]12CCC[C@@H]1N(Cc1ccccc1)CO2)c1ccc2c(c1)OCO2`, for which the GI50 in the assay with ACHN was > 100 µM (inactive); with CAKI-1 it was > 100 µM (inactive); in the assay on HOP-62, > 100 µM (inactive); with HT-29 it was > 100 µM (inactive); in the assay with Hs-578T, 65 µM (inactive); with K562, > 100 µM (inactive). Further, the GI50 with M14, in the assay on MCF7, in the assay with OVCAR-3, with OVCAR-4, in the assay on OVCAR-5 and with OVCAR-8 was > 100 µM (inactive) throughout. Besides, the GI50 in the assay with SF-268, in the assay with SF-295, in the assay on SF-539, with SN12C, with SNB-75 and in the assay on UACC-257 was > 100 µM (inactive) in each case. Moreover, in the assay with UO-31, the GI50 is > 100 µM (inactive).
For `CCN(CC)CC(=O)Nc1c(C(N)=O)nnn1Cc1cc(Cl)c(C(=O)c2ccc(Cl)cc2)c(Cl)c1`, the GI50 with ACHN was 29.7 µM (inactive); in the assay with CAKI-1, 22.5 µM (inactive); with HOP-62 it was 18.6 µM (inactive); with HT-29, 19.6 µM (inactive); in the assay with Hs-578T, 14.3 µM (inactive); with K562, 17.3 µM (inactive). Further, the GI50 with M14 was 16.9 µM (inactive); in the assay on MCF7, 17.1 µM (inactive); in the assay with OVCAR-3, 16.9 µM (inactive); in the assay on OVCAR-4, 31 µM (inactive); in the assay on OVCAR-5 it was 19.5 µM (inactive); with OVCAR-8 it was 17.7 µM (inactive). Further, the GI50 in the assay on SF-268 was 19.2 µM (inactive); in the assay on SF-295, 17.4 µM (inactive); in the assay with SF-539, 16.5 µM (inactive); with SN12C, 22.6 µM (inactive); with SNB-75, 21 µM (inactive); in the assay with UACC-257 it was 18.1 µM (inactive). For the same molecule, the GI50 in the assay with UO-31 was 13.7 µM (inactive).
As for `CCCCCCCCCCCC(=O)NCc1ccc(OC(=O)CCCCCCCCCCC)c(OC)c1`, the GI50 with ACHN is > 100 µM (inactive); with CAKI-1, > 100 µM (inactive); with HOP-62, > 100 µM (inactive); with HT-29, 37.8 µM (inactive); in the assay with Hs-578T, 56.4 µM (inactive); in the assay on K562 it was > 83 µM (inactive). Besides, the GI50 in the assay on M14 is 32.7 µM (inactive); in the assay with MCF7, 35.3 µM (inactive); in the assay on OVCAR-3 it was 31.9 µM (inactive); with OVCAR-4, 34.2 µM (inactive); in the assay with OVCAR-5, > 100 µM (inactive); with OVCAR-8 it was 67.9 µM (inactive). Besides, the GI50 was > 54.1 µM (inactive) with SF-268; > 66.4 µM (inactive) in the assay on SF-295; 3.56 µM (inactive) with SF-539; > 88.3 µM (inactive) in the assay with SN12C; > 100 µM (inactive) with SNB-75; > 100 µM (inactive) in the assay on UACC-257. Besides, the GI50 in the assay with UO-31 is > 70 µM (inactive).
With `CN(C)c1ccc(/C=C(\NC(=O)c2ccccc2)C(=O)NC(Cc2c[nH]c3ccccc23)C(=O)O)cc1` (configuration not stated), the GI50 in the assay with ACHN is > 100 µM (inactive); in the assay with CAKI-1 it was > 100 µM (inactive); with HOP-62 it was 34.4 µM (inactive); with HT-29 it was > 100 µM (inactive); in the assay on Hs-578T it was > 100 µM (inactive); in the assay on K562 it was > 100 µM (inactive). Besides, the GI50 with M14, in the assay on MCF7, with OVCAR-3, with OVCAR-4, in the assay with OVCAR-5 and with OVCAR-8 was > 100 µM (inactive) in each case. For the same molecule, the GI50 in the assay on SF-268 is > 100 µM (inactive); in the assay with SF-295, > 100 µM (inactive); with SF-539, > 100 µM (inactive); with SN12C it was > 100 µM (inactive); with SNB-75, 0.226 µM (active); with UACC-257, 69 µM (inactive). Besides, in the assay on UO-31, the GI50 is > 100 µM (inactive).
Regarding `Cn1c(=O)oc2cc(Br)ccc21`, the GI50 in the assay with ACHN, in the assay with CAKI-1, in the assay with HOP-62, in the assay on HT-29, in the assay on Hs-578T and in the assay with K562 was > 100 µM (inactive) throughout. The GI50 with M14, in the assay on MCF7, in the assay with OVCAR-3, in the assay with OVCAR-4, with OVCAR-5 and in the assay on OVCAR-8 was > 100 µM (inactive) in each case. For the same molecule, the GI50 with SF-268, in the assay on SF-295, in the assay on SF-539, in the assay on SN12C, in the assay with SNB-75 and with UACC-257 was > 100 µM (inactive) each time. For the same molecule, in the assay with UO-31, the GI50 was > 100 µM (inactive).
Consider `NCCCCCCn1c(-c2ccc(Br)cc2)cs/c1=N\c1ccccc1`, for which the GI50 is 14.6 µM (inactive) in the assay with ACHN; 14.6 µM (inactive) with CAKI-1; 16.8 µM (inactive) in the assay with HOP-62; 5.9 µM (inactive) in the assay on HT-29; 13.1 µM (inactive) in the assay with Hs-578T; 2.01 µM (inactive) with K562. The GI50 in the assay with M14 is 1.44 µM (inactive); with MCF7, 5.21 µM (inactive); in the assay with OVCAR-3 it was 10.9 µM (inactive); in the assay with OVCAR-4, 12.7 µM (inactive); with OVCAR-5, 12.2 µM (inactive); in the assay on OVCAR-8, 11.9 µM (inactive). Further, the GI50 is 13.9 µM (inactive) with SF-268; 16 µM (inactive) with SF-295; 13.1 µM (inactive) in the assay on SF-539; 13.7 µM (inactive) in the assay with SN12C; 11.9 µM (inactive) in the assay with SNB-75; 15.2 µM (inactive) in the assay on UACC-257. Besides, the GI50 with UO-31 is 10.4 µM (inactive).
Regarding `Cc1c/c(=N\c2ccc3c(c2)c(N)cc(C)[n+]3C)nc(N)n1C`, the GI50 was > 100 µM (inactive) in the assay with ACHN; > 100 µM (inactive) in the assay with CAKI-1; 87.7 µM (inactive) in the assay on HOP-62; > 100 µM (inactive) in the assay on HT-29; > 100 µM (inactive) with Hs-578T; > 100 µM (inactive) in the assay on K562. In addition, the GI50 is > 100 µM (inactive) with M14; > 100 µM (inactive) in the assay with MCF7; > 100 µM (inactive) with OVCAR-3; > 100 µM (inactive) in the assay with OVCAR-4; > 100 µM (inactive) in the assay with OVCAR-5; 86.3 µM (inactive) with OVCAR-8. Moreover, the GI50 in the assay on SF-268 was > 100 µM (inactive); in the assay on SF-295 it was > 100 µM (inactive); in the assay with SF-539, > 100 µM (inactive); in the assay on SN12C, 92.7 µM (inactive); in the assay with SNB-75, > 100 µM (inactive); with UACC-257 it was > 100 µM (inactive). Moreover, in the assay on UO-31, the GI50 is > 100 µM (inactive).

Source of the values: ChEMBL document CHEMBL1201862, “PubChem BioAssay data set” (2004).
